Experimental data published in patent publication US10689366B2, “Compounds for MALT1 degredation” (Cornell University, priority 2016, dated 2020).

These compounds were tested against T1, MALT1 (Homo sapiens, UniProt Q9UDY8) (assay: MALT1 degradation assay (Western blot) in OCI-Ly3 cells). Settings: 48 hours, normalized to Actin, relative to vehicle treated cells.
T1 sequence (Q9UDY8 1-824): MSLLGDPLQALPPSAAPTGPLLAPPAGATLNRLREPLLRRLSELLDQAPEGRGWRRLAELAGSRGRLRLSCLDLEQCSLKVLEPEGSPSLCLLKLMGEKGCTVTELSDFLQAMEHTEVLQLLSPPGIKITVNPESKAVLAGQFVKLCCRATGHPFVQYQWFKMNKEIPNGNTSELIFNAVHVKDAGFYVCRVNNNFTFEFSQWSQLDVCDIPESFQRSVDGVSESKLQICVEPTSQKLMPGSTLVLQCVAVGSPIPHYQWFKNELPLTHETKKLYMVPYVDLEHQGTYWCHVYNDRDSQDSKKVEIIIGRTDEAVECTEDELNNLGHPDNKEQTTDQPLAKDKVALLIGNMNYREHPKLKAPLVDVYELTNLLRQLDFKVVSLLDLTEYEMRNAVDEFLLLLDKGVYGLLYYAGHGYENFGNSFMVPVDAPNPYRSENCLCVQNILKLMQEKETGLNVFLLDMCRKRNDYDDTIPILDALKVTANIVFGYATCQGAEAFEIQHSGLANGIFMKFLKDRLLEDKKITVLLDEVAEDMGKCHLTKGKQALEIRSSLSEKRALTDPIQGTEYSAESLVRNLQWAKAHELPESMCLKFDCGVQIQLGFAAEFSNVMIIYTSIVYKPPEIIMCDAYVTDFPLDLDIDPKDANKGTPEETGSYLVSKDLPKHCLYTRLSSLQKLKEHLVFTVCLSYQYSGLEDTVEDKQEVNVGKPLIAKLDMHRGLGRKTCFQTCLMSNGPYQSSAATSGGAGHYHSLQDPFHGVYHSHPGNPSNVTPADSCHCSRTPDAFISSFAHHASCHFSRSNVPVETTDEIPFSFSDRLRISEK
Type: cell-based
Set-up: endogenous in cells; host or cells: OCI-Ly3
Method: In the experiments, OCI-Ly3 cells were grown for 6 hours in the presence of the indicated concentrations of Examples 1-6, 9, and 10. Proteins were extracted, analyzed by Western blot, and membranes were immunoblotted for MALT1, CRBN, and Actin. Table 3 provides the results of experimental data obtained from the example compounds of the present disclosure. In particular, OCI-Ly3 cells were grown for 48 hours in the presence of the indicated concentrations of Examples 1-19. Proteins were extracted, analyzed by Western blot, and membranes were immunoblotted for MALT1, CRBN, and Actin. Western blot bands were quantified using Image Lab software. Results were normalized to Actin expression and presented as % MALT1 degradation relative to vehicle treated cells.

SMILES	% MALT1 degradation at 1 µM
CO[C@@H](C)c1c(NC(=O)Nc2cnc(-n3cc(CNC(=O)CCOCCOCCOCCOCCC(=O)N[C@H](C(=O)N4C[C@H](O)CC4C(=O)NCc4ccc(-c5scnc5C)cc4)C(C)(C)C)cn3)c(Cl)c2)cnc2cc(Cl)nn12 (stereo partly drawn) [Example 10]	no degradation
CO[C@@H](C)c1c(NC(=O)Nc2cc(Cl)cnc2OCCNC(=O)CCCCCCCCOc2cccc3c2C(=O)N(C2CCC(=O)NC2=O)C3=O)cnc2cc(Cl)nn12 (stereo partly drawn) [Example 16, N-(2-((5-Chloro-3-(3-(2-chloro-7-((S)-1-methoxyethyl)pyrazolo[1,5-a]pyrimidin-6-yl)ureido)pyridin-2-yl)oxy)ethyl)-9-((2-(2,6-dioxopiperidin-3-yl)-1,3-dioxoisoindolin-4-yl)oxy)nonanamide]	no degradation

Same assay, conditions: 48 hours, normalized to Actin, relative to vehicle treated cells, read-out: % MALT1 Degradation at 1 μM

SMILES	% MALT1 degradation at 1 µM
CO[C@@H](C)c1c(NC(=O)Nc2cnc(-n3cc(CNC(=O)CCOCCOCCOCCOCCNc4cccc5c4C(=O)N(C4CCC(=O)NC4=O)C5=O)cn3)c(Cl)c2)cnc2cc(Cl)nn12 (stereo partly drawn) [Example 2, N-((1-(3-Chloro-5-(3-(2-chloro-7-((S)-1-methoxyethyl)pyrazolo[1,5-a]pyrimidin-6-yl)ureido)pyridin-2-yl)-1H-pyrazol-4-yl)methyl)-1-((2-(2,6-dioxopiperidin-3-yl)-1,3-dioxoisoindolin-4-yl)amino)-3,6,9,12-tetraoxapentadecan-15-amide]	> 50%
CO[C@@H](C)c1c(NC(=O)Nc2cc(Cl)cnc2OCCNC(=O)CCOCCOCCOCCOCCNc2cccc3c2C(=O)N(C2CCC(=O)NC2=O)C3=O)cnc2cc(Cl)nn12 (stereo partly drawn) [Example 3, N-(2-((5-Chloro-3-(3-(2-chloro-7-((S)-1-methoxyethyl)pyrazolo[1,5-a]pyrimidin-6-yl)ureido)pyridin-2-yl)oxy)ethyl)-1-((2-(2,6-dioxopiperidin-3-yl)-1,3-dioxoisoindolin-4-yl)amino)-3,6,9,12-tetraoxapentadecan-15-amide]	> 50%
C[C@@H](c1c(NC(=O)Nc2cnc(-n3nccn3)c(Cl)c2)cnc2cc(Cl)nn12)N(C)C(=O)CCOCCOCCNc1cccc2c1CN(C1CCC(=O)NC1=O)C2=O (stereo partly drawn) [Example 4, N—((S)-1-(2-Chloro-6-(3-(5-chloro-6-(2H-1,2,3-triazol-2-yl)pyridin-3-yl)ureido)pyrazolo[1,5-a]pyrimidin-7-yl)ethyl)-3-(2-(2-((2-(2,6-dioxopiperidin-3-yl)-1-oxoisoindolin-4-yl)amino)ethoxy)ethoxy)-N-methylpropanamide]	31 to 50%
CO[C@@H](C)c1c(NC(=O)Nc2cnc(-n3cc(CNC(=O)CCOCCOCCNc4cccc5c4CN(C4CCC(=O)NC4=O)C5=O)cn3)c(Cl)c2)cnc2cc(Cl)nn12 (stereo partly drawn) [Example 5, N-((1-(3-Chloro-5-(3-(2-chloro-7-((S)-1-methoxyethyl)pyrazolo[1,5-a]pyrimidin-6-yl)ureido)pyridin-2-yl)-1H-pyrazol-4-yl)methyl)-3-(2-(2-((2-(2,6-dioxopiperidin-3-yl)-1-oxoisoindolin-4-yl)amino)ethoxy)ethoxy)propanamide]	10 to 30%
CO[C@@H](C)c1c(NC(=O)Nc2cc(Cl)cnc2OCCNC(=O)CCOCCOCCNc2cccc3c2CN(C2CCC(=O)NC2=O)C3=O)cnc2cc(Cl)nn12 (stereo partly drawn) [Example 6, N-(2-((5-Chloro-3-(3-(2-chloro-7-((S)-1-methoxyethyl)pyrazolo[1,5-a]pyrimidin-6-yl)ureido)pyridin-2-yl)oxy)ethyl)-3-(2-(2-((2-(2,6-dioxopiperidin-3-yl)-1-oxoisoindolin-4-yl)amino)ethoxy)ethoxy)propanamide]	> 50%
CC(C)c1c(NC(=O)Nc2cnc(-n3cc(CNC(=O)CCOCCOCCNc4cccc5c4CN(C4CCC(=O)NC4=O)C5=O)cn3)c(Cl)c2)cnc2cc(Cl)nn12 (stereo not drawn) [Example 7, N-((1-(3-Chloro-5-(3-(2-chloro-7-isopropylpyrazolo[1,5-a]pyrimidin-6-yl)ureido)pyridin-2-yl)-1H-pyrazol-4-yl)methyl)-3-(2-(2-((2-(2,6-dioxopiperidin-3-yl)-1-oxoisoindolin-4-yl)amino)ethoxy)ethoxy)propanamide]	31 to 50%
Cc1c(NC(=O)Nc2cnc(-n3cc(CNC(=O)CCOCCOCCNc4cccc5c4CN(C4CCC(=O)NC4=O)C5=O)cn3)c(Cl)c2)cnc2ccc(Br)cc12 (stereo not drawn) [Example 8, N-((1-(5-(3-(6-Bromo-4-methylquinolin-3-yl)ureido)-3-chloropyridin-2-yl)-1H-pyrazol-4-yl)methyl)-3-(2-(2-((2-(2,6-dioxopiperidin-3-yl)-1-oxoisoindolin-4-yl)amino)ethoxy)ethoxy)propanamide]	31 to 50%
CO[C@@H](C)c1c(NC(=O)Nc2cc(Cl)cnc2OCCNC(=O)CCOCCOCCOCCOCCC(=O)N[C@H](C(=O)N2C[C@H](O)CC2C(=O)NCc2ccc(-c3scnc3C)cc2)C(C)(C)C)cnc2cc(Cl)nn12 (stereo partly drawn) [Example 9, N^1-(2-((5-Chloro-3-(3-(2-chloro-7-((S)-1-methoxyethyl)pyrazolo[1,5-a]pyrimidin-6-yl)ureido)pyridin-2-yl)oxy)ethyl)-N^16-((2S)-1-((4R)-4-hydroxy-2-((4-(4-methylthiazol-5-yl)benzyl)carbamoyl)pyrrolidin-1-yl)-3,3-dimethyl-1-oxobutan-2-yl)-4,7,10,13-tetraoxahexadecanediamide]	10 to 30%
CO[C@@H](C)c1c(NC(=O)Nc2cc(Cl)cnc2OCCNC(=O)CCOCCOCCOCCOCCNc2cccc3c2CN(C2CCC(=O)NC2=O)C3=O)cnc2cc(Cl)nn12 (stereo partly drawn) [Example 11, N-(2-((5-Chloro-3-(3-(2-chloro-7-((S)-1-methoxyethyl)pyrazolo[1,5-a]pyrimidin-6-yl)ureido)pyridin-2-yl)oxy)ethyl)-1-((2-(2,6-dioxopiperidin-3-yl)-1-oxoisoindolin-4-yl)amino)-3,6,9,12-tetraoxapentadecan-15-amide]	> 50%
CO[C@@H](C)c1c(NC(=O)Nc2cc(Cl)cnc2OCCNC(=O)CCOCCNc2cccc3c2CN(C2CCC(=O)NC2=O)C3=O)cnc2cc(Cl)nn12 (stereo partly drawn) [Example 12, N-(2-((5-Chloro-3-(3-(2-chloro-7-((S)-1-methoxyethyl)pyrazolo[1,5-a]pyrimidin-6-yl)ureido)pyridin-2-yl)oxy)ethyl)-3-(2-((2-(2,6-dioxopiperidin-3-yl)-1-oxoisoindolin-4-yl)amino)ethoxy)piopanamide]	31 to 50%
CO[C@@H](C)c1c(NC(=O)Nc2cc(Cl)cnc2OCCNC(=O)CCOCCOCCNc2cccc3c2C(=O)N(C2CCC(=O)NC2=O)C3=O)cnc2cc(Cl)nn12 (stereo partly drawn) [Example 14, N-(2-((5-Chloro-3-(3-(2-chloro-7-((S)-1-methoxyethyl)pyrazolo[1,5-a]pyrimidin-6-yl)ureido)pyridin-2-yl)oxy)ethyl)-3-(2-(2-((2-(2,6-dioxopiperidin-3-yl)-1,3-dioxoisoindolin-4-yl)amino)ethoxy)ethoxy)propanamide]	> 50%
CO[C@@H](C)c1c(NC(=O)Nc2cc(Cl)cnc2OCCNC(=O)CCOCCOCCOCCOCCOCCOCCNc2cccc3c2C(=O)N(C2CCC(=O)NC2=O)C3=O)cnc2cc(Cl)nn12 (stereo partly drawn) [Example 15, N-(2-((5-Chloro-3-(3-(2-chloro-7-((S)-1-methoxyethyl)pyrazolo[1,5-a]pyrimidin-6-yl)ureido)pyridin-2-yl)oxy)ethyl)-1-((2-(2,6-dioxopiperidin-3-yl)-1,3-dioxoisoindolin-4-yl)amino)-3,6,9,12,15,18-hexaoxahenicosan-21-amide]	> 50%
C[C@@H](c1c(NC(=O)Nc2cnc(-n3nccn3)c(Cl)c2)cnc2cc(Cl)nn12)N(C)C(=O)CCOCCOCCOCCN1CCN(Cc2ccc(COc3cccc4c3CN([C@H]3CCC(=O)NC3=O)C4=O)cc2)CC1 [Example 17, N-((S)-1-(2-Chloro-6-(3-(5-chloro-6-(2H-1,2,3-triazol-2-yl)pyridin-3-yl)ureido)pyrazolo[1,5-a]pyrimidin-7-yl)ethyl)-3-(2-(2-(2-(4-(4-(((2-((S)-2,6-dioxopiperidin-3-yl)-1-oxoisoindolin-4-yl)oxy)methyl)benzyl)piperazin-1-yl)ethoxy)ethoxy)ethoxy)-N-methylpropanamide]	> 50%
